Results: patent publication US7008936B2, “Combination of epothilone analogs and chemotherapeutic agents for the treatment of proliferative diseases” (Bristol-Myers Squibb Company, priority 2002, dated 2006)

Legend:
[1] = test system: advanced solid tumors; experiment: Compound 1 followed by carboplatin IV every 3 weeks in patients with advanced cancer (Example 1)
Description: Compound 1 followed by carboplatin was given intravenously every 3 weeks to patients with advanced solid tumors treated with ≦2 prior chemotherapy regimens. Pharmacokinetics of both drugs were measured on the first course. Twenty-five (25) patients were treated at four dose levels—combining Compound 1 (30 or 40 mg/m^2) with […] or AUC 5 or 6 (Calvert formula; Calvert et al., J. Clin. Oncol., 1989, 7, 1748–1756) of carboplatin. A total of 91 courses were given.

[2] = Compound 1 plasma levels (pharmacokinetic samples, first cycle) in Phase I combination study; assay type: in vivo, human; details: patients, IV infusion, with carboplatin
Source text: Pharmacokinetic samples were taken during the first cycle.

[3] = test system: advanced cancer; experiment: Phase I study of Compound 1 in combination with carboplatin in patients with advanced cancer, day 1 and split day 1/8 schedules (Example 2)
Description: Compound 1 was assessed in Phase I studies in combination with other chemotherapeutic agents. Compound 1 was given as a 60-minute infusion, 30 minutes prior to a 30-minute carboplatin infusion on day 1 every three weeks (or 21 days). Pharmacokinetic samples were taken during the first cycle. Twenty-five (25) patients were treated on this schedule at 4 dose levels (Compound 1 doses of 30 mg/m^2 or 40 mg/m^2 with carboplatin doses of […], or AUC 5 or 6).
A further 14 patients were recruited onto an amended schedule with Compound 1 doses being split and administered on days 1 and 8 every three weeks (or 21 days) and carboplatin being administered on day 1.

[4] = test system: paclitaxel-sensitive (A2780, HCT116 and LS174T) and paclitaxel-resistant human colon tumors (HCT116/VM46), ovarian carcinoma (Pat-7 and A2780Tax) and breast …; experiment: Preclinical pharmacology studies, antitumor activity in tumor models; assay type: in vivo

Question: Which confirmed partial responses ([1]; Compound 1 30 or 40 mg/m^2 + carboplatin AUC 5 or 6, IV every 3 weeks, 25 patients, breast, neuroendocrine and unknown primary carcinomas) does the source give for `C/C(=C\c1csc(C)n1)[C@@H]1C[C@@H]2O[C@]2(C)CCC[C@H](C)[C@H](O)[C@@H](C)C(=O)C(C)(C)[C@@H](O)CC(=O)N1` (relative stereo) [Compound 1, [1S-1R*,3R*(E),7R*,10S*,11R*,12R*,16S*]]-7,11-dihydroxy-8,8,10,12,16-pentamethyl-3-[1-methyl-2-(2-methyl-4-thiazolyl)ethenyl]-4-aza-17-oxabicyclo[14.1.0]heptadecane-5,9-dione] here?
Answer: 3/25

Question: What about the “patients with disease stabilization and clinical benefit from treatment” value ([1]; Compound 1 + carboplatin every 3 weeks, 25 patients treated) of the same molecule?
Answer: 12 patients

Question: What about the “dose at which CTC grade 4 neutropenia was dose limiting” value ([1]; human, in vivo) of the same molecule?
Answer: 40 mg/m^2

Question: What about the “maximum tolerated dose of Compound 1” value ([1]; with carboplatin AUC 5 (Calvert formula), every 3 weeks) of the same molecule?
Answer: 40 mg/m^2

Question: What about the half-life ([2]; human) of the same molecule?
Answer: ~30 h

Question: And the “Cmax and AUC” value [2]?
Answer: increase with dose

Question: And the volume of distribution [2]?
Answer: high

Question: And the “patients showing disease stabilization for more than two months” value ([3]; Compound 1 + carboplatin)?
Answer: 48%

Question: What about the major toxicities ([3]; Compound 1 + carboplatin, 39 patients over 7 dose levels) of the same molecule?
Answer: myelosuppression, myalgia and peripheral neuropathy

Question: And the partial responses ([3]; Compound 1 + carboplatin, 39 patients, 2 breast, neuro-endocrine, unknown primary carcinomas and mesothelioma)?
Answer: 5 patients

Question: What about the “dose at which DLT was observed, split schedule” value ([3]; Compound 1 on days 1 and 8 every three weeks with carboplatin AUC 6 on day 1) of the same molecule?
Answer: 25 mg/m^2

Question: And the “dose at which dose limiting toxicity (DLT) occurred” value ([3]; Compound 1 day 1 every three weeks with carboplatin AUC 6, myelosuppression as major toxicity)?
Answer: 40 mg/m^2

Question: What about the “patients who withdrew from the study because of study drug toxicity” value ([3]; peripheral neuropathy reported in all these patients, 39 patients treated) of the same molecule?
Answer: Eleven

Question: And the oral efficacy ([4]; oral administration, comparable to parenteral administration)?
Answer: orally efficacious

Question: And the antitumor activity ([4]; paclitaxel-sensitive and paclitaxel-resistant tumor models)?
Answer: very impressive and broad spectrum of antitumor activity
